Reference: patent publication US20240268381A1, “Agricultural Chemical Formulation” (ExxonMobil Chemical Patents Inc., priority 2021, published 2024)

Legend:
Assay type in all cases: physicochemical
[1] = Kinematic viscosity at 25° C. (ASTM D7042)
Method: (§1) The following properties of the solvents were tested: • Kinematic viscosity at 25° C. […] The funnel containing the mixture was inverted several times. The water and solvent phases were allowed to separate for 24 hours, resulting in two distinct phases. For water solubility in solvent, the solvent layer was transferred to a sample vial and was tested for water content according to ASTM E1064. For solvent solubility in water, the water layer was transferred to a sample vial and was tested by a gas chromatography test method for solvent content. Water content, water solubility, and solvent solubility in water were not tested for solvents C2-C5.

[2] = Water content of the solvents, Karl Fischer titration (ASTM E1064)
Method: as §1

[3] = Water solubility in solvent; settings: 20 g solvent mixed with 20 g water, phases separated 24 hours, solvent layer tested
Method: as §1

[4] = Solvent solubility in water; settings: 20 g solvent mixed with 20 g water, phases separated 24 hours, water layer tested by gas chromatography
Method: as §1

[5] = Solvency test, active ingredient trifluralin; settings: wt % active ingredient in solution; highest concentration with no crystals at room temperature
Method: (§2) Solvency of solvents E1-E5 and C1-C8 was tested by dissolving various solid active ingredients in each solvent. The following pesticides were tested as active ingredients: trifluralin, fluroxypyr, bromoxynil octanoate, and 2-methyl-4-chlorophenoxyacetic acid (MCPA). Solvency was characterized by the weight ratio of an active ingredient in a solvent and was determined by adding 0.5 gram of active ingredient to a vial equipped with a stir bar and then charging the solvent to achieve a desired concentration. The vials were capped and placed into a water bath kept at a temperature 5 to 10° C. below the melting point of tested pesticide. The mixture was stirred in the vial for 24 hours. If the active ingredient was fully dissolved, the mixture was transferred to a room temperature water bath. If no active ingredient crystals were formed, a higher concentration of active ingredient was tested. Conversely, if active ingredient crystals were formed, a lower concentration of active ingredient was tested. Solubility was recorded as the highest concentration of active ingredient in the tested solvent with no formation of crystals. Concentrations were tested at a 5% interval. For example, if the active ingredient was dissolved at 50%, 55% would be the next concentration to be tested. Concentrations below 15 wt % were not tested.

[6] = Solvency test, active ingredient fluroxypyr; settings: wt % active ingredient in solution; highest concentration with no crystals at room temperature
Method: as §2

[7] = Solvency test, active ingredient bromoxynil octanoate; settings: wt % active ingredient in solution; highest concentration with no crystals at room temperature
Method: as §2

[8] = Solvency test, active ingredient MCPA; settings: wt % active ingredient in solution; concentrations below 15 wt % not tested
Method: as §2

[9] = Density at 25° C. (ASTM D4052)
Pour point (ASTM D5950) = experiment: Pour point (ASTM D5950)
Method: as §1

[10] = Hydrolytic stability in pH 4.5 or pH 8.5 buffer; settings: 54° C., 14 days, 13C NMR; for Hydrolysis at pH 4.5: pH 4.5 buffer; for Hydrolysis at pH 8.5: pH 8.5 buffer
Method: Hydrolytic stability was characterized by mixing the tested solvent with an excess of pH 4.5 or pH 8.5 buffer in a vial which was placed in a heated water bath (54° C.). After 14 days, the vial was cooled to room temperature and the content was allowed to separate into aqueous and organic (solvent) phases. The solvent phase was transferred to a clean vial and sodium sulfate was added to remove residual water. The mixture was filtered to obtain the solvent filtrate which was analyzed by ^13C NMR to measure the amount of hydrolysis products (acid or alcohol), if any.
Hydrolytic stability for solvents E3, C1, C2, and C6-C8 was not tested. No hydrolysis is expected for aromatic solvent C2 due to lack of hydrolysable bonds.

SMILES	KV25 [1] [cSt]	Water content [2] [ppm w/w]	Water solubility in solvent [3] [vol %]	Solvent solubility in water [4] [wt %]	Solvency, Trifluralin [5] [wt %]	Solvency, Fluroxypyr [6] [wt %]	Solvency, Bromoxynil Octanoate [7] [wt %]	Solvency, MCPA [8] [wt %]	Density at 25° C. [9] [g/mL]	Pour Point (Pour point (ASTM D5950)) [°C]	Hydrolysis at pH 4.5 [10] [%]	Hydrolysis at pH 8.5 [10] [%]
CCCCCCCCCC(=O)N(C)C [Solvent C5, linear N,N-dimethyldecanamide, reference compound]	5.33				62.4	62.2	60.2	<15	0.876	−6	<1.0	<1.0
CC(C)(C)C(=O)OCc1ccccc1 [Solvent E4, Benzyl pivalate]	3.40	232	0.422	0.010	69.5	66.0	68.8	<15	0.966	−90	0.3	<1.0
CN(C)C(=O)CCCCCC(C)(C)C [Solvent E5, N,N-dimethyl neodecanamide]	7.29	589	2.457	0.141	65.0	63.0	63.5		0.883	−72	<1.0	<1.0
CC(=O)OCc1ccccc1 [Solvent C4, Benzyl acetate, reference compound]	2.20				61.2	59.8	72.9	15.1	1.051	−90	22.5	6.8
O=C(OC1CCCCC1)c1ccccc1 [Solvent E2, Cyclohexyl benzoate]	11.96	102	0.394	0.007	66.8	64.8	68.3	<15	1.042	−54	2.7	1.7
CCC(C)OC(=O)c1ccc(C(=O)OC(C)CC)o1 (centres unmarked) [Solvent C1, Di-sec butyl furan-2,5-dicarboxylate, reference compound]	66.27	269	0.699	0.003	37.1	<15	48.3	<15	1.047			
CCC(C)OC(=O)c1ccccc1 (centres unmarked) [Solvent E1, Secondary butyl benzoate]	3.38	499	0.386	0.008	72.6	61.3	73.0	<15	0.992	−81	<1.0	3.7

The next lines start with the values.

KV25 [1] [cSt]	Water content [2] [ppm w/w]	Water solubility in solvent [3] [vol %]	Solvent solubility in water [4] [wt %]	Solvency, Trifluralin [5] [wt %]	Solvency, Fluroxypyr [6] [wt %]	Solvency, Bromoxynil Octanoate [7] [wt %]	Solvency, MCPA [8] [wt %]	Density at 25° C. [9] [g/mL]	Pour Point (Pour point (ASTM D5950)) [°C]	Hydrolysis at pH 4.5 [10] [%]	Hydrolysis at pH 8.5 [10] [%]	SMILES
6.53	113	0.265	<0.001	64.1	50.8	68.6	<15	0.962				CC(C)CCCCCOC(=O)c1ccccc1 [Solvent E3, Isooctyl benzoate]
2.15	722	0.369	<0.001	72.9	<15	67.5	<15	0.867	−102			CC(=O)OCCCCCCC(C)C [Solvent C8, isononyl acetate]
9.60	332	0.173	<0.001	54.5		62.1	<15	0.949	−69			CC(C)CCCCCCCOC(=O)c1ccccc1 [Solvent C6, isodecyl benzoate]
1.69	699	0.448	0.005	77.3	60.2	70.9	<15	0.868	−105	12.6	<1.0	CC(=O)OCCCCCC(C)C [Solvent C7, isooctyl acetate]
3.11				62.8		69.7	<15	1.001	−36	0.5	6.7	CCCCOC(=O)c1ccccc1 [Solvent C3, Butyl benzoate, reference compound]
